Laboratory results reported in patent US20150359220A1, “COMPOSITIONS COMPRISING GOUGEROTIN AND A FUNGICIDE” (BAYER CROPSCIENCE LP, priority 2013, published 2015).
Where two headings read alike, the source gives them in different places.

What was measured:
Puccinia triticina = assay: Puccinia triticina-test (wheat)/preventive; format: in vivo; conditions: 8 days after inoculation
Venturia inaequalis = assay: Venturia test (apples)/preventive; conditions: for Efficacy in % found: 10 days after inoculation
Protocol: After the spray coating has dried on, the plants are inoculated with an aqueous conidia suspension of the causal agent of apple scab (Venturia inaequalis) and then remain for 1 day in an incubation cabinet at approximately 20° C. and a relative atmospheric humidity of 100%. The plants are then placed in a greenhouse at approximately 21° C. and a relative atmospheric humidity of approximately 90%.
The test is evaluated 10 days after the inoculation.

Phytophthora infestans = assay: whole plant or invertebrate; format: in vivo; conditions: for Efficacy in % found: Table 9, 100 ppm a.i., 3 days after inoculation
Sphaerotheca fuliginea = assay: Sphaerotheca test (cucumbers)/preventive; format: in vivo; conditions: 7 days after inoculation; for pest or weed control at 1 ppm / pest or weed control at 100 ppm: Podosphaera fuliginea, 168 h, read-out: Efficacy in % found; for pest or weed control at 100 ppm: 100 ppm a.i.
Alternaria solani = assay: Alternaria test (tomatoes)/preventive; format: in vivo; conditions: 3 days after inoculation; for pest or weed control at 2 ppm / pest or weed control at 50 ppm: Alternaria solani, topical, 72 h, read-out: Efficacy in % found; for pest or weed control at 50 ppm: 50 ppm a.i.
[1] = test system: Blumeria graminis fsp. hordei; assay: Blumeria test (barley)/preventive; format: in vivo; conditions: 7 days after inoculation
Botrytis cinerea = assay: Botrytis test (beans)/preventive; conditions: Table 7, size of lesions 2 days after inoculation
Protocol: After the spray coating has dried on, 2 small pieces of agar covered with growth of Botrytis cinerea are placed on each leaf. The inoculated plants are placed in a darkened chamber at 20° C. and a relative atmospheric humidity of 100%.
2 days after the inoculation, the size of the lesions on the leaves is evaluated.

Septoria tritici = assay: Septoria tritici-test (wheat)/preventive; format: in vivo; conditions: 21 days after inoculation
Pyrenophora teres = assay: Pyrenophora teres-test (barley)/preventive; format: in vivo; conditions: Table 15, 8 days after inoculation
[2] = Venturia inaequalis, 240 h, read-out: Efficacy in % found
[3] = Phytophthora infestans, topical, 72 h, read-out: Efficacy in % found

CC1COC(Cn2cncn2)(c2ccc(Oc3ccc(Cl)cc3)cc2Cl)O1 (stereo not shown) [F7, difenoconazole]
Efficacy in % found (Puccinia triticina; Table 13, 31.25 ppm a.i.): 30% | Efficacy in % found (Puccinia triticina; Table 13, 62.5 ppm a.i.): 60% | pest or weed control at 1 ppm (Venturia inaequalis; [2]): 38% | pest or weed control at 100 ppm (Phytophthora infestans; [3]): 0% | pest or weed control at 1 ppm (Sphaerotheca fuliginea; Table 19, 1 ppm a.i.): 0% | pest or weed control at 2 ppm (Alternaria solani; Table 2, 2 ppm a.i.): 30% | Efficacy in % found ([1]; Table 6, 62.5 ppm a.i.): 44% | Efficacy in % found ([1]; Table 6, 125 ppm a.i.): 67%

CC1(C(=O)Nc2ccc(O)c(Cl)c2Cl)CCCCC1 [F16, fenhexamid]
pest or weed control at 25 ppm (Venturia inaequalis; [2]): 0% | pest or weed control at 100 ppm (Phytophthora infestans; [3]): 0% | pest or weed control at 100 ppm (Sphaerotheca fuliginea; Table 20): 0% | pest or weed control at 50 ppm (Alternaria solani; Table 4): 50%

OC(Cc1ccccc1Cl)(Cn1nc[nH]c1=S)C1(Cl)CC1 (stereo not shown) [F41, prothioconazole]
pest or weed control at 1 ppm (Venturia inaequalis; [2]): 0% | pest or weed control at 100 ppm (Phytophthora infestans; [3]): 45% | pest or weed control at 1 ppm (Sphaerotheca fuliginea; Table 19, 1 ppm a.i.): 43% | pest or weed control at 2 ppm (Alternaria solani; Table 2, 2 ppm a.i.): 0%

CCCN(CC)CC1COC2(CCC(C(C)(C)C)CC2)O1 (stereo not shown) [F46, spiroxamine]
Efficacy in % found (Botrytis cinerea; 100 ppm a.i.): 14% | pest or weed control at 50 ppm (Venturia inaequalis; [2]): 0% | pest or weed control at 100 ppm (Sphaerotheca fuliginea; Table 20): 30% | pest or weed control at 50 ppm (Alternaria solani; Table 4): 46% | Efficacy in % found ([1]; Table 6, 125 ppm a.i.): 11%

CC(C)(C)C(O)(CCc1ccc(Cl)cc1)Cn1cncn1 (stereo not shown) [F47, tebuconazole]
Efficacy in % found (Septoria tritici; Table 17, 125 ppm a.i.): 57% | Efficacy in % found (Puccinia triticina; Table 13, 31.25 ppm a.i.): 30% | Efficacy in % found (Puccinia triticina; Table 13, 62.5 ppm a.i.): 60% | pest or weed control at 1 ppm (Venturia inaequalis; [2]): 0% | pest or weed control at 100 ppm (Phytophthora infestans; [3]): 15% | pest or weed control at 2 ppm (Alternaria solani; Table 2, 2 ppm a.i.): 35% | Efficacy in % found ([1]; Table 6, 31.25 ppm a.i.): 78%

O=C(NCCc1ncc(C(F)(F)F)cc1Cl)c1ccccc1C(F)(F)F [F70, fluopyram]
Efficacy in % found (Pyrenophora teres; 31.25 ppm a.i.): 60% | Efficacy in % found (Pyrenophora teres; 62.5 ppm a.i.): 80% | Efficacy in % found (Septoria tritici; Table 16, 62.5 ppm a.i.): 0% | Efficacy in % found (Venturia inaequalis; Table 21, 1 ppm a.i.): 0% | Efficacy in % found (Sphaerotheca fuliginea; Table 19, 1 ppm a.i.): 0% | Efficacy in % found (Alternaria solani; Table 2, 2 ppm a.i.): 40% | Efficacy in % found ([1]; Table 5, 31.25 ppm a.i.): 0% | Efficacy in % found ([1]; Table 5, 62.5 ppm a.i.): 0%

CC(C)Oc1cccc(NC(=O)c2ccccc2C(F)(F)F)c1 [F71, flutolanil]
Efficacy in % found (Botrytis cinerea; 250 ppm a.i.): 30% | pest or weed control at 50 ppm (Venturia inaequalis; [2]): 0% | pest or weed control at 100 ppm (Sphaerotheca fuliginea; Table 20): 20%

Cn1cc(C(=O)Nc2ccccc2-c2cc(F)c(F)c(F)c2)c(C(F)F)n1 [F72, fluxapyroxad]
Efficacy in % found (Pyrenophora teres; 15.625 ppm a.i.): 80% | Efficacy in % found (Pyrenophora teres; 31.25 ppm a.i.): 90% | Efficacy in % found (Septoria tritici; Table 16, 31.25 ppm a.i.): 13% | Efficacy in % found (Puccinia triticina; Table 12, 15.625 ppm a.i.): 22% | Efficacy in % found (Puccinia triticina; Table 12, 31.25 ppm a.i.): 22% | Efficacy in % found (Venturia inaequalis; Table 21, 0.25 ppm a.i.): 0% | Efficacy in % found (Phytophthora infestans): 0% | Efficacy in % found (Alternaria solani; Table 2, 0.5 ppm a.i.): 45% | Efficacy in % found ([1]; Table 5, 31.25 ppm a.i.): 0%

Cc1nn(C)c(F)c1C(=O)Nc1ccccc1C(C)CC(C)C (stereo not shown) [F84, penflufen]
Efficacy in % found (Pyrenophora teres; 62.5 ppm a.i.): 70% | Efficacy in % found (Pyrenophora teres; 125 ppm a.i.): 60% | Efficacy in % found (Puccinia triticina; Table 12, 31.25 ppm a.i.): 67% | Efficacy in % found (Venturia inaequalis; Table 21, 0.5 ppm a.i.): 0% | Efficacy in % found (Phytophthora infestans): 8% | Efficacy in % found (Sphaerotheca fuliginea; Table 19, 0.5 ppm a.i.): 0%

CO/C=C(/C(=O)OC)c1ccccc1Oc1cc(Oc2ccccc2C#N)ncn1 [F107, azoxystrobin]
Efficacy in % found (Pyrenophora teres; 15.625 ppm a.i.): 60% | Efficacy in % found (Pyrenophora teres; 31.25 ppm a.i.): 90% | Efficacy in % found (Septoria tritici; Table 16, 15.625 ppm a.i.): 13% | Efficacy in % found (Septoria tritici; Table 16, 31.25 ppm a.i.): 50% | Efficacy in % found (Puccinia triticina; Table 12, 7.8125 ppm a.i.): 67% | Efficacy in % found (Venturia inaequalis; Table 22, 0.5 ppm a.i.): 84% | Efficacy in % found (Sphaerotheca fuliginea; Table 18, 0.5 ppm a.i.): 37% | Efficacy in % found (Alternaria solani; Table 3, 2 ppm a.i.): 41% | Efficacy in % found ([1]; Table 5, 31.25 ppm a.i.): 10%

CSC1=N[C@@](C)(c2ccccc2)C(=O)N1Nc1ccccc1 [F114, fenamidone]
pest or weed control at 50 ppm (Venturia inaequalis; [2]): 0% | pest or weed control at 1 ppm (Phytophthora infestans; [3]): 41% | pest or weed control at 100 ppm (Sphaerotheca fuliginea; Table 18): 21% | pest or weed control at 50 ppm (Alternaria solani; Table 3): 62%

COC(=O)N(OC)c1ccccc1COc1ccn(-c2ccc(Cl)cc2)n1 [F121, pyraclostrobin]
Efficacy in % found (Pyrenophora teres; 31.25 ppm a.i.): 80% | Efficacy in % found (Septoria tritici; Table 16, 31.25 ppm a.i.): 75% | Efficacy in % found (Venturia inaequalis; Table 22, 0.5 ppm a.i.): 0% | Efficacy in % found (Sphaerotheca fuliginea; Table 18, 0.5 ppm a.i.): 0% | Efficacy in % found (Alternaria solani; Table 3, 2 ppm a.i.): 41%

CON=C(C(=O)OC)c1ccccc1CON=C(C)c1cccc(C(F)(F)F)c1 [F126, trifloxystrobin]
Efficacy in % found (Septoria tritici; Table 16, 15.625 ppm a.i.): 50% | Efficacy in % found (Septoria tritici; Table 16, 31.25 ppm a.i.): 75% | Efficacy in % found (Venturia inaequalis; Table 22, 0.5 ppm a.i.): 53% | Efficacy in % found (Sphaerotheca fuliginea; Table 18, 0.5 ppm a.i.): 0% | Efficacy in % found (Alternaria solani; Table 3, 2 ppm a.i.): 47% | Efficacy in % found ([1]; Table 5, 15.625 ppm a.i.): 50% | Efficacy in % found ([1]; Table 5, 31.25 ppm a.i.): 60%
